In US20230285516A1 (priority 2020, published 2023):

System: dendritic (CD4−/CD11c+) cells
Assay: FACS of spleen CD11c+ dendritic cells in CIA models
Type: in vivo, mice
Settings: CIA model
Method: Early Arthritis Model. Fifty mice with the same characteristics were immunized at the base of the tail with 100 μg of chicken type II collagen emulsified in complete Freund's adjuvant. The boost was applied on day 21 at the base of the tail with 100 μg of type II collagen emulsified with Freund's incomplete adjuvant. On the same boosting day, the treatments (a-d) were applied every week for six weeks. Three animals were euthanized in the sixth week and three in the thirteenth week. The spleen, lymph nodes, joint tissue, liver, lungs, kidneys and heart were obtained in order to assess the inflammatory infiltrate, the predominant cell populations and the expression of pro- and anti-inflammatory cytokines.
Established Arthritis Model. Arthritis was induced as in the previous model in 50 mice and the treatments were applied intramuscularly, after 2 weeks of the boost, every week for 6 weeks. Three animals were euthanized in the eighth week and three in the fifteenth week. The spleen, lymph nodes, joint tissue, liver, lungs, kidneys and heart were obtained in order to assess the inflammatory infiltrate, the predominant cell populations and the expression of pro- and anti-inflammatory cytokines.
Cytometric evaluation. […]
FIG. 12. […] The expression of CD11c was detected by flow cytometry. The results are representative of 6 mice analyzed in each group. […]

## collagen-polyvinylpyrrolidone [type I polymerized collagen]
  CD11c+ population (antigenic presentation): decrease
